Measured values: patent publication US20250144056A1, “ANTIMICROBIAL HOST DEFENSE PEPTIDE-INDUCING COMPOSITIONS AND METHODS OF PRODUCTION AND USE THEREOF” (Board of Regents for the Oklahoma Agricultural and …, priority 2022, published 2025)

Tests used:
[1] = system: AvBD9 mRNA expression; assay: RT-qPCR of AvBD9 mRNA expression in HTC macrophage cells; assay type: cell-based, chicken
Description: (§1) Culture and stimulation of macrophages. Two different chicken macrophage cell lines, HTC (24) and HD11 (25), were kindly provided by Dr. Narayan C. Rath and Dr. Hyun Lillehoj of USDA-ARS and maintained in RPMI 1640 containing 10% heat-inactivated FBS, 100 U/ml penicillin, and 100 μg/ml streptomycin and subcultured every 3-4 days. After overnight seeding at 1.5×10^6 cells/well in 6-well cell culture plates, cells were treated with different concentrations of each compound for 24 h or with the indicated concentration of each compound for various lengths of time for dose-response and time-course experiments, respectively. To study the synergy between HMTi/DNMTi and HDACi, different concentrations of an HMTi or DNMTi were added to the cells in the presence or absence of an HDACi for 24 h, followed by RNA isolation and HDP gene expression analysis as described below. HTC cells were also stimulated with butyrate, BIX01294, or their combination for 24 h, followed by 3-h stimulation with 10 ng/ml LPS and subsequent expression analysis.
(§2) Total RNA extraction and gene expression analysis. Total RNA was extracted using RNAzol (Molecular Biology Research Center, Cincinnati, OH) according to the manufacturer's protocol. Gene expression was performed using reverse transcription-quantitative PCR (RT-qPCR) as previously described (27-29). Reverse transcription was performed with 300 ng of total RNA and Maxima® First Strand cDNA Synthesis Kit (ThermoFisher Scientific, Pittsburgh, PA). The cDNA was then diluted 10-fold with RNase-free water prior to real-time PCR using QuantiTect SYBR® Green PCR Kit (Qiagen, Valencia, CA) in 10-μl reactions using primers specific for HDP, barrier function, and inflammatory cytokine genes as described (27, 29, 30). PCR was run in CFX Connect Real-Time PCR System (Bio-Rad, Hercules, CA) using the following program: 95° C. for 10 min, followed by 40 cycles of 94° C. for 15 sec, 55° C. for 20 sec, and 72° C. for 30 sec. The specificity of PCR reactions was confirmed by the melting curve analysis. The glyceraldehyde-3-phosphate dehydrogenase (GAPDH) gene was used as the reference for data normalization. The fold changes in gene expression in the cells treated with individual compounds or in combinations were calculated relative to the cells treated with an equal volume of RPMI 1640 or DMSO using the ΔΔCt method (31).

[2] = system: chicken HDP genes; assay: RT-qPCR of multiple HDP genes in HTC cells; assay type: cell-based
Description: (§3) Culture and stimulation of macrophages. Two different chicken macrophage cell lines, HTC (24) and HD11 (25), were kindly provided by Dr. Narayan C. Rath and Dr. Hyun Lillehoj of USDA-ARS and maintained in RPMI 1640 containing 10% heat-inactivated FBS, 100 U/ml penicillin, and 100 μg/ml streptomycin and subcultured every 3-4 days. After overnight seeding at 1.5×10^6 cells/well in 6-well cell culture plates, cells were treated with different concentrations of each compound for 24 h or with the indicated concentration of each compound for various lengths of time for dose-response and time-course experiments, respectively. […]
(§4) Total RNA extraction and gene expression analysis. […] Gene expression was performed using reverse transcription-quantitative PCR (RT-qPCR) as previously described (27-29). […] The cDNA was then diluted 10-fold with RNase-free water prior to real-time PCR using QuantiTect SYBR® Green PCR Kit (Qiagen, Valencia, CA) in 10-μl reactions using primers specific for HDP, barrier function, and inflammatory cytokine genes as described (27, 29, 30). […] The fold changes in gene expression in the cells treated with individual compounds or in combinations were calculated relative to the cells treated with an equal volume of RPMI 1640 or DMSO using the ΔΔCt method (31).

[3] = system: AvBD4; assay: RT-qPCR of AvBD4 in HTC cells; assay type: cell-based, chicken; details: 2 mM butyrate and at least one concentration of BIX01294, 24 h (FIG. 5)
Description: as §3, §4

[4] = system: AvBD9; assay: RT-qPCR of AvBD9 in peripheral blood mononuclear cells (PBMCs); assay type: cell-based; details: chicken PBMCs, 24 h (FIG. 6, Panel F)
Description: Isolation, culture, and stimulation of chicken peripheral blood mononuclear cells (PBMCs). Chicken PBMCs were isolated from EDTA-anticoagulated venous blood collected from 2- to 4-week-old broiler chickens through gradient centrifugation using Histopaque 1077 (Millipore Sigma) as previously described (22, 26). PBMCs were seeded at 3×10^7 cells/well in 6-well cell culture plates and stimulated with different concentrations of an HMTi or DNMTi with or without 1 mM butyrate for 24 h, followed by RNA isolation and HDP gene expression analysis as described below.
Total RNA extraction and gene expression analysis. Total RNA was extracted using RNAzol (Molecular Biology Research Center, Cincinnati, OH) according to the manufacturer's protocol. Gene expression was performed using reverse transcription-quantitative PCR (RT-qPCR) as previously described (27-29). […] The cDNA was then diluted 10-fold with RNase-free water prior to real-time PCR using QuantiTect SYBR® Green PCR Kit (Qiagen, Valencia, CA) in 10-μl reactions using primers specific for HDP, barrier function, and inflammatory cytokine genes as described (27, 29, 30). […] The fold changes in gene expression in the cells treated with individual compounds or in combinations were calculated relative to the cells treated with an equal volume of RPMI 1640 or DMSO using the ΔΔCt method (31).

[5] = system: AvBD2; assay: RT-qPCR of AvBD2 in HTC cells; assay type: cell-based, chicken; details: BIX01294 with 2 mM butyrate, 24 h (FIG. 5)
Description: as §3, §4

[6] = system: AvBD1; assay: RT-qPCR of AvBD1 in HD11 macrophages; assay type: cell-based, chicken; details: HD11 cells, 5 μM compound with 2 mM butyrate, 24 h (FIG. 6, Panel B)
Description: as §3, §4

[7] = system: IL-1β; assay: RT-qPCR of IL-1β in HTC cells with or without LPS; assay type: cell-based, chicken
Description: as §1, §2

[8] = system: AvBD10; assay: RT-qPCR of AvBD10 in HTC cells; assay type: cell-based, chicken; details: 2 mM butyrate and at least one concentration of BIX01294, 24 h (FIG. 5)
Description: as §3, §4

[9] = system: AvBD9; assay: RT-qPCR of AvBD9 in HD11 macrophages; assay type: cell-based, chicken; details: HD11 cells, 5 μM compound with 2 mM butyrate, 24 h (FIG. 6, Panel A)
Description: as §3, §4

[10] = system: AvBD10; assay: RT-qPCR of AvBD10 in HD11 macrophages; assay type: cell-based, chicken; details: HD11 cells, 5 μM compound with 2 mM butyrate, 24 h (FIG. 6, Panel D)
Description: as §3, §4

[11] = system: CLDN1; assay: RT-qPCR of CLDN1 (claudin 1) in HTC cells; assay type: cell-based, chicken
Description: as §1, §2

[12] = system: AvBD4; assay: RT-qPCR of AvBD4 in HD11 macrophages; assay type: cell-based, chicken; details: HD11 cells, 5 μM compound with 2 mM butyrate, 24 h (FIG. 6, Panel C)
Description: as §3, §4

[13] = system: IL-8; assay: RT-qPCR of IL-8 in HTC cells with or without LPS; assay type: cell-based, chicken
Description: as §1, §2

SMILES: COc1cc2nc(N3CCCN(C)CC3)nc(NC3CCN(Cc4ccccc4)CC3)c2cc1OC [BIX01294]
- impact of LPS on the AvBD9-inducing synergy with butyrate ([1]; 5 μM BIX01294 + 2 mM butyrate 24 h, then 10 ng/ml LPS 3 h (FIG. 8, Panel C)): no impact
- additional increase in AvBD9 gene expression over BIX01294 alone, combination with mocetinostat ([1]; 5 μM BIX01294 in combination with 2.5 μM mocetinostat, 24 h (FIG. 7, Panel A)): 23 fold
- additional increase in AvBD9 gene expression over BIX01294 alone, combination with butyrate ([1]; 5 μM BIX01294 in combination with 2 mM butyrate, 24 h (FIG. 7, Panel A)): 26 fold
- additional increase in AvBD9 gene expression over BIX01294 alone, combination with vorinostat ([1]; 5 μM BIX01294 in combination with vorinostat (SAHA), 24 h (FIG. 7, Panel A)): 69 fold
- additional increase in AvBD9 expression of the butyrate combination over compound alone ([1]; 20 μM compound + 2 mM butyrate versus 20 μM compound alone): 54 fold
- increase in AvBD9 mRNA expression ([1]; 20 μM compound alone, 24 h (FIG. 2, Panel B), peak): 175 fold
- induction of AvBD9 expression ([1]; 20 μM compound alone, 24 h (FIG. 4, Panels A, B)): 207 fold
- increase in AvBD9 expression, combination with butyrate ([1]; 20 μM compound in combination with 2 mM butyrate, 24 h (FIG. 4, Panels A, B)): 11,165 fold
- synergy with butyrate in AvBD9 mRNA expression ([1]; indicated concentrations in combination with 2 mM butyrate, 24 h (FIG. 4)): concentration-dependent increase
- synergy in AvBD9 induction with HDACi ([1]; with any of three HDACi (vorinostat, butyrate, mocetinostat), 24 h (FIG. 7, Panel A)): dramatic synergy
- induction of the HDP genes detectable in HTC cells, combination with butyrate ([2]; BIX01294 with 2 mM butyrate, 24 h (FIG. 5)): all were synergistically induced
- induction of most other HDP genes, combination with HDACi ([2]; BIX01294 with any of the three HDACi (vorinostat, butyrate, mocetinostat), 24 h (FIG. 7, Panel B)): synergistically induced
- AvBD4 induction, combination with butyrate [3]: greater than 100 fold
- AvBD9 induction ([4]; BIX01294 alone): induced AvBD9 in a dose-dependent manner
- synergy in AvBD9 induction with butyrate ([4]; BIX01294 with 1 mM butyrate): obvious synergy
- AvBD2 upregulation, combination with butyrate [5]: 2- to 3 fold
- AvBD1 induction, combination with butyrate [6]: synergistically induced, albeit at lower magnitudes
- effect on LPS-induced IL-1B expression, combination with butyrate ([7]; 5 μM BIX01294 + 2 mM butyrate 24 h, then 10 ng/ml LPS 3 h (FIG. 8, Panel D)): significant reduction
- IL-1β synthesis, combination with butyrate ([7]; 5 μM BIX01294 + 2 mM butyrate, without LPS (FIG. 8, Panel D)): tended to have a synergistic effect
- effect on LPS-induced IL-1β expression ([7]; compound alone 24 h, then 10 ng/ml LPS 3 h (FIG. 8, Panel D)): opposite effect
- activity in inducing gene expression of IL-1β ([7]; compound alone (2 mM butyrate or 5 μM BIX01294), without LPS (FIG. 8, Panel D)): no or weak activity
- AvBD10 induction, combination with butyrate [8]: greater than 100 fold
- synergy in AvBD9 induction with butyrate [9]: drastic synergy
- AvBD10 induction, combination with butyrate [10]: synergistically induced, albeit at lower magnitudes
- CLDN1 synergy with butyrate after subsequent LPS treatment ([11]; 5 μM BIX01294 + 2 mM butyrate 24 h, then 10 ng/ml LPS 3 h (FIG. 8, Panel A)): further enhanced
- synergy in CLDN1 expression with butyrate ([11]; 5 μM BIX01294 + 2 mM butyrate, 24 h (FIG. 8, Panel A)): marked synergy
- activity in increasing CLDN1 expression ([11]; 5 μM BIX01294 alone, 24 h (FIG. 8, Panel A)): minimum activity
- AvBD4 induction, combination with butyrate [12]: synergistically induced, albeit at lower magnitudes
- LPS-induced IL-8 expression level, combination with butyrate ([13]; 5 μM BIX01294 + 2 mM butyrate 24 h, then 10 ng/ml LPS 3 h (FIG. 8, Panel E)): remained elevated
- IL-8 synthesis, combination with butyrate ([13]; 5 μM BIX01294 + 2 mM butyrate, without LPS (FIG. 8, Panel E)): tended to have a synergistic effect
- effect on LPS-induced IL-8 expression ([13]; compound alone 24 h, then 10 ng/ml LPS 3 h (FIG. 8, Panel E)): potentiated
- activity in inducing gene expression of IL-8 ([13]; compound alone (2 mM butyrate or 5 μM BIX01294), without LPS (FIG. 8, Panel E)): no or weak activity
